Assay results published in ChEMBL document CHEMBL3885881, “DrugMatrix”.

Organism: Rattus norvegicus
Experiment: DrugMatrix - Regimen: Daily Repeat
Format: toxicity, organism-based, Sprague-Dawley
Parameters: regimen Daily Repeat, gender Male, age 6-8 weeks
Conditions: in vivo, po, route oral GAVAGE, vehicle 100 % WATER; for ABSOLUTE BASOPHIL / ABSOLUTE EOSINOPHIL / ABSOLUTE LYMPHOCYTE / ABSOLUTE MONOCYTE / ABSOLUTE SEGMENTED NEUTROPHIL / BASOPHIL / EOSINOPHIL / ERYTHROCYTE COUNT / HEMATOCRIT / HEMOGLOBIN / LEUKOCYTE COUNT / LYMPHOCYTE / MEAN CORPUSCULAR HEMOGLOBIN / MEAN CORPUSCULAR HEMOGLOBIN CONCENTRATION / MEAN CORPUSCULAR VOLUME / MONOCYTE / NEUTROPHIL / NUCLEATED RED BLOOD CELLS / PLATELET COUNT: tissue Blood; for ALANINE AMINOTRANSFERASE / ALKALINE PHOSPHATASE / ASPARTATE AMINOTRANSFERASE / BLOOD UREA NITROGEN / CARBON DIOXIDE / CHLORIDE / CHOLESTEROL / CREATINE PHOSPHOKINASE / CREATININE / GLUCOSE / LACTATE DEHYDROGENASE / LIPASE / PHOSPHORUS / POTASSIUM / SODIUM / TOTAL BILIRUBIN / TOTAL PROTEIN / URIC ACID: tissue Plasma
[1] = 0 mg/kg, 72 h, dose level Control, time 3 day
[2] = 0 mg/kg, 120 h, dose level Control, time 5 day
[3] = 46 mg/kg, 72 h, dose level Low, time 3 day
[4] = 46 mg/kg, 120 h, dose level Low, time 5 day

O=C1NC(=O)C(c2ccccc2)(c2ccccc2)N1 [PHENYTOIN]
ABSOLUTE BASOPHIL [1]: 0 CELLS/uL | ABSOLUTE EOSINOPHIL [1]: 123.17 CELLS/uL | ABSOLUTE LYMPHOCYTE [1]: 12677.83 CELLS/uL | ABSOLUTE MONOCYTE [1]: 66.17 CELLS/uL | ABSOLUTE SEGMENTED NEUTROPHIL [1]: 1149.5 CELLS/uL | BASOPHIL [1]: 0% | EOSINOPHIL [1]: 0.83% | ERYTHROCYTE COUNT [1]: 5.26 x10E6/uL | HEMATOCRIT [1]: 33.07% | HEMOGLOBIN [1]: 13.43 G/DL | LEUKOCYTE COUNT [1]: 14.02 x10E3/uL | LYMPHOCYTE [1]: 90.17% | MEAN CORPUSCULAR HEMOGLOBIN [1]: 25.62 pg | MEAN CORPUSCULAR HEMOGLOBIN CONCENTRATION [1]: 40.65 G/DL | MEAN CORPUSCULAR VOLUME [1]: 63 fL | MONOCYTE [1]: 0.5% | NEUTROPHIL [1]: 8.5% | NUCLEATED RED BLOOD CELLS [1]: 0.17 /100WBC | PLATELET COUNT [1]: 1142.83 x10E3/uL | ALANINE AMINOTRANSFERASE [1]: 45.17 u/L | ALKALINE PHOSPHATASE [1]: 340.17 u/L | ASPARTATE AMINOTRANSFERASE [1]: 77.33 u/L | BLOOD UREA NITROGEN [1]: 14.67 mg/dL | CARBON DIOXIDE [1]: 28.67 mmol/L | CHLORIDE [1]: 101.17 MEQ/L | CHOLESTEROL [1]: 77.67 mg/dL | CREATINE PHOSPHOKINASE [1]: 263.67 u/L | CREATININE [1]: 0.15 mg/dL | GLUCOSE [1]: 169.33 mg/dL | LACTATE DEHYDROGENASE [1]: 230 u/L | LIPASE [1]: 9.67 u/L | PHOSPHORUS [1]: 11.8 mg/dL | POTASSIUM [1]: 5.91 MEQ/L | SODIUM [1]: 142.88 MEQ/L | TOTAL BILIRUBIN [1]: 0.22 mg/dL | TOTAL PROTEIN [1]: 5.7 G/DL | URIC ACID [1]: 1.35 mg/dL | ABSOLUTE BASOPHIL [2]: 0 CELLS/uL | ABSOLUTE EOSINOPHIL [2]: 125 CELLS/uL | ABSOLUTE LYMPHOCYTE [2]: 13809 CELLS/uL | ABSOLUTE MONOCYTE [2]: 351 CELLS/uL | ABSOLUTE SEGMENTED NEUTROPHIL [2]: 1581.67 CELLS/uL | BASOPHIL [2]: 0% | EOSINOPHIL [2]: 0.67% | ERYTHROCYTE COUNT [2]: 5.53 x10E6/uL | HEMATOCRIT [2]: 34.83% | HEMOGLOBIN [2]: 13.9 G/DL | LEUKOCYTE COUNT [2]: 15.87 x10E3/uL | LYMPHOCYTE [2]: 87.5% | MEAN CORPUSCULAR HEMOGLOBIN [2]: 25.25 pg | MEAN CORPUSCULAR HEMOGLOBIN CONCENTRATION [2]: 40.08 G/DL | MEAN CORPUSCULAR VOLUME [2]: 63.05 fL | MONOCYTE [2]: 2.17% | NEUTROPHIL [2]: 9.67% | NUCLEATED RED BLOOD CELLS [2]: 0 /100WBC | PLATELET COUNT [2]: 1044 x10E3/uL | ALANINE AMINOTRANSFERASE [2]: 50.67 u/L | ALKALINE PHOSPHATASE [2]: 395 u/L | ASPARTATE AMINOTRANSFERASE [2]: 86 u/L | BLOOD UREA NITROGEN [2]: 15.33 mg/dL | CARBON DIOXIDE [2]: 29.33 mmol/L | CHLORIDE [2]: 101.5 MEQ/L | CHOLESTEROL [2]: 71.33 mg/dL | CREATINE PHOSPHOKINASE [2]: 323.17 u/L | CREATININE [2]: 0.18 mg/dL | GLUCOSE [2]: 145.67 mg/dL | LACTATE DEHYDROGENASE [2]: 389.5 u/L | LIPASE [2]: 9.83 u/L | PHOSPHORUS [2]: 11.35 mg/dL | POTASSIUM [2]: 6.39 MEQ/L | SODIUM [2]: 142.77 MEQ/L | TOTAL BILIRUBIN [2]: 0.18 mg/dL | TOTAL PROTEIN [2]: 6.1 G/DL | URIC ACID [2]: 1.52 mg/dL | ABSOLUTE BASOPHIL [3]: 0 CELLS/uL | ABSOLUTE EOSINOPHIL [3]: 0 CELLS/uL | ABSOLUTE LYMPHOCYTE [3]: 15884.67 CELLS/uL | ABSOLUTE MONOCYTE [3]: 0 CELLS/uL | ABSOLUTE SEGMENTED NEUTROPHIL [3]: 1248.67 CELLS/uL | BASOPHIL [3]: 0% | EOSINOPHIL [3]: 0% | ERYTHROCYTE COUNT [3]: 5.58 x10E6/uL | HEMATOCRIT [3]: 35.6% | HEMOGLOBIN [3]: 14.27 G/DL | LEUKOCYTE COUNT [3]: 17.13 x10E3/uL | LYMPHOCYTE [3]: 93% | MEAN CORPUSCULAR HEMOGLOBIN [3]: 25.63 pg | MEAN CORPUSCULAR HEMOGLOBIN CONCENTRATION [3]: 40.1 G/DL | MEAN CORPUSCULAR VOLUME [3]: 63.9 fL | MONOCYTE [3]: 0% | NEUTROPHIL [3]: 7% | NUCLEATED RED BLOOD CELLS [3]: 0 /100WBC | PLATELET COUNT [3]: 1336.33 x10E3/uL | ALANINE AMINOTRANSFERASE [3]: 48.67 u/L | ALKALINE PHOSPHATASE [3]: 344.67 u/L | ASPARTATE AMINOTRANSFERASE [3]: 69.33 u/L | BLOOD UREA NITROGEN [3]: 13.67 mg/dL | CARBON DIOXIDE [3]: 33.67 mmol/L | CHLORIDE [3]: 99.67 MEQ/L | CHOLESTEROL [3]: 68.67 mg/dL | CREATINE PHOSPHOKINASE [3]: 151.67 u/L | CREATININE [3]: 0.12 mg/dL | GLUCOSE [3]: 146 mg/dL | LACTATE DEHYDROGENASE [3]: 81.33 u/L | LIPASE [3]: 10 u/L | PHOSPHORUS [3]: 11.37 mg/dL | POTASSIUM [3]: 6.96 MEQ/L | SODIUM [3]: 142.8 MEQ/L | TOTAL BILIRUBIN [3]: 0.2 mg/dL | TOTAL PROTEIN [3]: 5.7 G/DL | URIC ACID [3]: 1.53 mg/dL | ABSOLUTE BASOPHIL [4]: 0 CELLS/uL | ABSOLUTE EOSINOPHIL [4]: 40.67 CELLS/uL | ABSOLUTE LYMPHOCYTE [4]: 11032 CELLS/uL | ABSOLUTE MONOCYTE [4]: 233.67 CELLS/uL | ABSOLUTE SEGMENTED NEUTROPHIL [4]: 793.67 CELLS/uL | BASOPHIL [4]: 0% | EOSINOPHIL [4]: 0.33% | ERYTHROCYTE COUNT [4]: 5.47 x10E6/uL | HEMATOCRIT [4]: 33.93% | HEMOGLOBIN [4]: 13.63 G/DL | LEUKOCYTE COUNT [4]: 12.1 x10E3/uL | LYMPHOCYTE [4]: 91.33% | MEAN CORPUSCULAR HEMOGLOBIN [4]: 24.93 pg | MEAN CORPUSCULAR HEMOGLOBIN CONCENTRATION [4]: 40.17 G/DL | MEAN CORPUSCULAR VOLUME [4]: 62 fL | MONOCYTE [4]: 2% | NEUTROPHIL [4]: 6.33% | NUCLEATED RED BLOOD CELLS [4]: 0 /100WBC | PLATELET COUNT [4]: 1416.33 x10E3/uL | ALANINE AMINOTRANSFERASE [4]: 54 u/L | ALKALINE PHOSPHATASE [4]: 319.67 u/L | ASPARTATE AMINOTRANSFERASE [4]: 264.33 u/L | BLOOD UREA NITROGEN [4]: 17 mg/dL | CARBON DIOXIDE [4]: 24.67 mmol/L | CHLORIDE [4]: 104.33 MEQ/L | CHOLESTEROL [4]: 61.67 mg/dL | CREATINE PHOSPHOKINASE [4]: 2442.67 u/L | CREATININE [4]: 0.27 mg/dL | GLUCOSE [4]: 152 mg/dL | LACTATE DEHYDROGENASE [4]: 827.67 u/L | LIPASE [4]: 10.67 u/L | PHOSPHORUS [4]: 13.43 mg/dL | POTASSIUM [4]: 7.35 MEQ/L | SODIUM [4]: 144.9 MEQ/L | TOTAL BILIRUBIN [4]: 0.2 mg/dL | TOTAL PROTEIN [4]: 6 G/DL | URIC ACID [4]: 3.3 mg/dL
